Assay results: PMC5814837 (Pest Management Science, 2017)

target: mitochondrial succinate dehydrogenase (SDH) (Zymoseptoria tritici, UniProt F9X9V6+F9XH52+O42772, A84V); experiment: biochemical; details: IC50

Q: How did the IC50 turn out when `Cn1cc(C(=O)Nc2ccc(F)cc2-c2ccc(Cl)c(Cl)c2)c(C(F)F)n1` [Bixafen, bixafen] was run?
A: The IC50 was 0.106 ± 0.017 µM.

Q: How did the IC50 turn out when `O=C(NCCc1ncc(C(F)(F)F)cc1Cl)c1ccccc1C(F)(F)F` [Fluopyram, fluopyram] was run?
A: The IC50 was 14.8 ± 1.32 µM.

Q: `Cc1cc(OC(C)C)ccc1C(=O)C(C)(C)NC(=O)c1sccc1C` [Isofetamid, N‐[1,1‐dimethyl‐2‐(4‐isopropoxy‐o‐tolyl)‐2‐oxoethyl]‐3‐methylthiophene‐2‐carboxamide] was tested. Which IC50 did it give?
A: The IC50 was greater than 32 µM.
